Measured values reported in patent US20180360799A1, “Nitrofuran Derivatives That Induce Apoptosis in Breast Cancer Cells by Activating Protein Expression” (Oklahoma Medical Research Foundation, priority 2015, published 2018).

Legend:
HCC-1143 cells = test: Cell viability, CellTiter-Glo, HCC-1143; type: cell-based; conditions: Homo sapiens, HCC1143, 72 h; Table 2; cancer cell viability, 3 d treatment; read-out: HCC-1143 IC50
Description: (§1) Given the known functions of CHOP in ER stress-induced apoptosis^16, 17 and in regulating cancer cell death,^6, 19, 20 the inventor investigated whether compound 1 affects the viability of TNBC cells. Three human TNBC cell lines, HCC-1806, HCC-1143, and HCC-38, were treated with doses of 1 ranging from 0.125 μM to 20 μM and their viability was assessed using the CellTiter-Glo assay, which measures intracellular ATP levels.
(§2) HCC-1806, HCC-1143, or HCC-38 cells were seeded at 3×10^3 cells/well in a 384-well plate and treated with compounds at the indicated concentrations. After 3 d treatment, the medium was aspirated and 20 μL/well of CellTiter-Glo reagent was added. Cell viability was measured with an EnVision multilabel plate reader. The IC50 value for cell viability of each compound was calculated with GraphPad Prism (La Jolla, Calif., US).

HCC-38 cells = test: Cell viability, CellTiter-Glo, HCC-38; type: cell-based; conditions: Homo sapiens, HCC38, 72 h; Table 2; cancer cell viability, 3 d treatment; read-out: HCC-38 IC50
Description: as §1, §2

CHOP gene = test: CHOP mRNA by qRT-PCR in HCC-1806 cells; type: cell-based, human
Description: The results are the means of 4 replicate wells and are representative of 3 independent studies. *P<0.05 and **P<0.01 by Student's t-test compared with cells treated with DMSO (in FIG. 3A) or with 3d for 0 h (in FIG. 3B). […] The results are the means of 4 replicate wells and are representative of 3 independent studies. *P<0.05 and **P<0.01 by Student's t-test compared with cells treated with compound 3d for 0 h. […] Total RNA was extracted using TRIzol reagent (Invitrogen, Carlsbad, Calif.) according to the manufacturer's protocol, and 2 μg of total RNA was reverse transcribed using a Superscript kit (Invitrogen). Real-time PCR was performed in 96-well format using SYBR Select Master Mix (Applied Biosystems, Foster City, Calif.) with an ABI 7500 PCR system (Applied Biosystems). The primer sequences used were: Human CHOP: SEQ ID NO: 1 [NT] and SEQ ID NO: 2 [NT]. Human ATF4: SEQ ID NO: 3 [NT] and SEQ ID NO: 4 [NT]. Human XBP1: SEQ ID NO: 5 [NT] and SEQ ID NO: 6 [NT]. Human Cyclophilin A: SEQ ID NO: 7 [NT] and SEQ ID NO: 8 [NT]. Human GAPDH: SEQ ID NO: 9 [NT] and SEQ ID NO: 10 [NT].

[1] = test system: UPRE-Luciferase (UPRE-Luc) reporter; test: UPRE-Luc reporter assay in HEK293 cells; type: cell-based, human; conditions: 3d 10 μM or Tm 1 μg/mL, 24 h
Description: (§3) FIG. 3G is a graph showing HEK293 cells stably expressing CHOP-Luc, ERSE-Luc, or UPRE-luc reporters were treated with DMSO, a 5-nitrofuran-2-amide derivative, or tunicamycin. HEK293 cells stably expressing CHOP-Luc, ERSE-Luc, or UPRE-luc reporters were treated with DMSO, compound 3d (10 μM), or Tm (1 μg/mL) for 24 h, and luciferase activity was measured using the Bright-Glo assay. Results are the means of 4 replicate wells and are representative of 3 independent experiments.
(§4) The inventor next asked whether the IRE1α and ATF6 branches of the unfolded protein response were also activated by compound 3d treatment of TNBC cells. […] XBP1 mRNA splicing, as measured by XBP1s levels, increased only slightly in the first 24 h after compound 3d treatment of HCC-1806 cells (from 11% of total XBP1 at 0 h to 15˜20% at 2˜24 h). […] Next, it was determined whether compound 3d activates the ATF6 pathway by evaluating its effect on the activity of an ER stress response elements (ERSE)-Luc reporter stably established in HEK293 cell line.
(§5) The HEK293T CHOP reporter cell line (CHOP-Luc) was previously described.^21 HEK293T cells were stably transfected with ERSE-Luciferase^25 and UPRE-Luciferase^23 reporters to generate ERSE-Luc and UPRE-Luc reporter cell lines, respectively. […] Luciferase activity was measured with a Bright-Glo kit 24 h later.

[2] = test system: ER stress response elements (ERSE)-Luc reporter; test: ERSE-Luc reporter assay in HEK293 cells; type: cell-based, human; conditions: 10 μM, 24 h
Description: as §3, §4, §5

HCC-1806 cells = test: Viability of siRNA-transfected HCC-1806 cells, CellTiter-Glo; type: cell-based, human; conditions: 48 h
Description: FIG. 3H is a graph showing cell viability of HCC-1806 cells transfected with a control or CHOP siRNA after treatment with a 5-nitrofuran-2-amide derivative or DMSO. Control or CHOP siRNA (20 nM) was transfected into HCC-1806 cells, and 6 h later, cells were treated with compound 3d (5 μM) or DMSO for 48 h. Cell viability was measured using the CellTiter-Glo assay. The data shown are representative of 3 independent studies. *P<0.05 by Student's t-test compared with DMSO-treated cells.
To confirm that CHOP induction plays a role in compound 3d-mediated TNBC cell death, the inventor asked whether siRNA-mediated knockdown of CHOP mitigated compound 3d-induced cell death. For this, HCC-1806 cells were transfected with different concentrations of CHOP siRNA, and knockdown efficiency was assessed by RT-PCR.
HCC-1806 cells incubated with serum-free RPMI 1640 medium (Corning) were transfected with scrambled control or CHOP siRNA (E-004819-00; Dharmacon/Thermo Scientific, IL, US) using LipofectAMINE reagent (Invitrogen). After 6 h, the medium was replaced with RPMI 1640 medium supplemented with 10% FBS and compound 3d was added. After 48 h, the medium was aspirated and 60 μL/well of CellTiter-Glo reagent was added in 96-w format. Cell viability was measured with an EnVision multilabel plate reader.

`CC1CCN(c2ccc(NC(=O)c3ccc([N+](=O)[O-])o3)cc2)CC1` [Compound 3d] was tested, and the IC50 (HCC-1143 cells) was 2100 nM, the IC50 (HCC-38 cells) was 2500 nM and the “CHOP transcription, time dependence” value (CHOP gene; HCC-1806, 10 μM, indicated times) was “increased CHOP transcription in a time-dependent fashion”. The “CHOP mRNA levels relative to DMSO-treated cells” value (CHOP gene; HCC-1806, dose- and time-dependent studies) was “up to 9 fold”, the “CHOP mRNA levels, dose dependence” value (CHOP gene; HCC-1806, indicated concentrations, 8 h) was “significantly increased CHOP mRNA levels in a dose-dependent manner” and the “increase of UPRE-Luc luciferase activity” value [1] was “less than 2 fold”. For the same compound, the “effect on ERSE-driven luciferase activity, in words” value [2] was “no significant effect”, the “viability of cells transfected with control siRNA” value (HCC-1806 cells; HCC-1806, 3d 5 μM) was “marked reduction in the viability” and the “cell death in cells transfected with CHOP siRNA” value (HCC-1806 cells; HCC-1806, CHOP siRNA 20 nM, 3d 5 μM) was “significantly attenuated the effects of compound 3d”.
